# Source: ChEMBL document CHEMBL1201862, “PubChem BioAssay data set” (2004)
# The source made the active and inactive calls.
# Experiments:
# [1] = target: Cytochrome P450 2C9 (Homo sapiens, UniProt P11712)
# [2] = target: T1, Cytochrome P450 1A2 (Homo sapiens, UniProt P05177);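 note: PubChem cytochrome P450 panel assay, CYP1A2 panel member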
# T1 sequence (P05177 whole entry): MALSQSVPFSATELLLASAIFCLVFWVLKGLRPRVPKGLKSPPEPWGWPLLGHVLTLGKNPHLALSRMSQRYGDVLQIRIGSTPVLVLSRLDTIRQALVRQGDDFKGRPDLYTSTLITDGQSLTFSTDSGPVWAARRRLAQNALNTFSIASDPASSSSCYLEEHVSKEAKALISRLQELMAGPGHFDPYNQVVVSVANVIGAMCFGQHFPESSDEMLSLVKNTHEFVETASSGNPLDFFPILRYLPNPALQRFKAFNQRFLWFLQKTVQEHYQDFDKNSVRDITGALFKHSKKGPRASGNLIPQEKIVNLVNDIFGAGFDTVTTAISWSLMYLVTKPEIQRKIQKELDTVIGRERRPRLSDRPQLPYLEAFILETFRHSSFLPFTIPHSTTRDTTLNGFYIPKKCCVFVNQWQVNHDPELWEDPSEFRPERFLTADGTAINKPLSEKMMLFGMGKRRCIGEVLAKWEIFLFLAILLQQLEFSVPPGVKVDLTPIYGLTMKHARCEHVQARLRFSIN
# [3] = Luminescence Cell-Based Dose Confirmation HTS to Identify Activators of 5'UTR Stem-Loop Driven Alpha-Synuclein mRNA Translation in H4 Neuroglioblastoma Cells. [Related pubchem assays: 1829 (Project Summary), 1814 (Primary HTS)]; format: functional
# [4] = Luminescence Cell-Based Dose Response HTS to Identify Activators of Luciferase Translation or Activity in H4 […] Cells. [Related pubchem assays: 1829 (Project Summary), 1814 (Primary HTS)]; format: functional
# [5] = test system: H4; test: Luminescence Cell-Based Dose Response HTS to Identify Activators of 5'UTR Stem-Loop Driven Prion Protein mRNA Translation in H4 Neuroglioblastoma Cells. [Related pubchem assays: 1829 (Project Summary), 1814 (Primary HTS)]; format: functional; conditions: Homo sapiens
# [6] = target: Cytochrome P450 2C19 (Homo sapiens, UniProt P33261); test: Cytochrome panel assay with activity outcomes. Panel member name: p450-cyp2c19 Compounds with AC50 equal or less than 10 uM are considered active; format: functional
# [7] = target: Cytochrome P450 3A4 (Homo sapiens, UniProt P08684);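 note: CYP3A4 tested as one member of a cytochrome P450 panel screen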
# [8] = target: T2, Polyadenylate-binding protein 1 (Homo sapiens, UniProt P11940); test: MLLE binding blockers, Cy5 peptide tracer – biochemical, fluorescence polarization, Cy5-PAM2 peptide, secondary, miRNA deadenylation inhibitor project, dose response (AID 602260); format: functional; conditions: read-out: IC50_Mean
# [9] = target: T2, Polyadenylate-binding protein 1; test: MLLE domain peptide-binding blockers, IC50 – biochemical, fluorescence polarization, FITC-PAM2 peptide, dose response (AID 602259); format: functional; conditions: read-out: IC50_Mean
# [10] = target: T3, Heat shock factor protein 1 (Mus musculus, UniProt P38532); test: enhancement of HSF1-driven luciferase signal – cell-based, NIH3T3, luminescence, dose retest, confirmation (AID 435004); format: functional;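 note: stress induced by proteasome inhibitor MG132 added 30 min after compound; luciferase reporter driven by HSF1 response element in NIH3T3 cells; actives raise luminescence as potentiators of the MG132 stress response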
# T3 sequence (P38532 whole entry): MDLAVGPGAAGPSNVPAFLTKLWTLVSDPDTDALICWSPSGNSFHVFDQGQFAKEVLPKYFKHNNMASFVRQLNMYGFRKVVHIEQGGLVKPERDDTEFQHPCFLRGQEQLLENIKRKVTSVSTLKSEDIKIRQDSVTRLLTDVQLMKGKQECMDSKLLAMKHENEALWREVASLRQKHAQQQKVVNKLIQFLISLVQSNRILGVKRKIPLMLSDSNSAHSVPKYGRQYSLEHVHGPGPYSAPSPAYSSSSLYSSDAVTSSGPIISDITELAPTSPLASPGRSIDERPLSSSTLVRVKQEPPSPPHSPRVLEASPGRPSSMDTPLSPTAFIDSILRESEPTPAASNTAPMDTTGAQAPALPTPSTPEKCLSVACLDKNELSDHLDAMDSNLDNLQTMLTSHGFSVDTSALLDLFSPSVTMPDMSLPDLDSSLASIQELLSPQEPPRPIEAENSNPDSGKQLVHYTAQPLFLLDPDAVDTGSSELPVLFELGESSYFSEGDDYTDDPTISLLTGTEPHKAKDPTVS
# [11] = target: T4, Corticotropin-releasing factor receptor 2/Corticotropin-releasing factor-binding protein (Homo sapiens, UniProt P24387+Q13324); test: Dose Response confirmation of uHTS hits for small molecule antagonists of the CRF-binding protein and CRF-R2 receptor complex.; format: functional; conditions: read-out: IC50_Mean
# T4 sequence (Q13324 whole entry): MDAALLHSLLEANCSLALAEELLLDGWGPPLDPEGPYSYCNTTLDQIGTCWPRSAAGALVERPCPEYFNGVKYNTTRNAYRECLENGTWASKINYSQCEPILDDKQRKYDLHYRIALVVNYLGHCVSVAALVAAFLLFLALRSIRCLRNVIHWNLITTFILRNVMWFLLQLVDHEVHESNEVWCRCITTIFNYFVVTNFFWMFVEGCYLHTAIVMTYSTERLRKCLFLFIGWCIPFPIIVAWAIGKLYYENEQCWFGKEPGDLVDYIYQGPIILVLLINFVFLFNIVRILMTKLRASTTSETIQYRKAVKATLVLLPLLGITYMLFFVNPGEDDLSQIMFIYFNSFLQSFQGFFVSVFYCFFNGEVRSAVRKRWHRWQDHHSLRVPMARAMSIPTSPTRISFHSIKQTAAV
# T4 sequence (P24387 whole entry): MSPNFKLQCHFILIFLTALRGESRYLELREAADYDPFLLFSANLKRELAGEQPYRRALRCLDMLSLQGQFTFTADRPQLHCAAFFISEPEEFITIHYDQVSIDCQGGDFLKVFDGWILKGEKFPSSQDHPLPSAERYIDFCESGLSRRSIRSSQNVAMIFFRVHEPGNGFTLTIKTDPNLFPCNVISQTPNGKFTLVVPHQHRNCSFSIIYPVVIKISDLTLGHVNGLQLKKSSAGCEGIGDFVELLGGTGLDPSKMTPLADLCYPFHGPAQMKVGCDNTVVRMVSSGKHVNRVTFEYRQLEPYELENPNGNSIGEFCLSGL
# [12] = target: T4, Corticotropin-releasing factor receptor 2/Corticotropin-releasing factor-binding protein; test: activators of CRF receptor 2 with binding protein – uHTS hits, confirmation (AID 602473); format: functional; conditions: read-out: EC50_Mean
# Chain of Cytochrome P450 3A4 (P08684 whole entry): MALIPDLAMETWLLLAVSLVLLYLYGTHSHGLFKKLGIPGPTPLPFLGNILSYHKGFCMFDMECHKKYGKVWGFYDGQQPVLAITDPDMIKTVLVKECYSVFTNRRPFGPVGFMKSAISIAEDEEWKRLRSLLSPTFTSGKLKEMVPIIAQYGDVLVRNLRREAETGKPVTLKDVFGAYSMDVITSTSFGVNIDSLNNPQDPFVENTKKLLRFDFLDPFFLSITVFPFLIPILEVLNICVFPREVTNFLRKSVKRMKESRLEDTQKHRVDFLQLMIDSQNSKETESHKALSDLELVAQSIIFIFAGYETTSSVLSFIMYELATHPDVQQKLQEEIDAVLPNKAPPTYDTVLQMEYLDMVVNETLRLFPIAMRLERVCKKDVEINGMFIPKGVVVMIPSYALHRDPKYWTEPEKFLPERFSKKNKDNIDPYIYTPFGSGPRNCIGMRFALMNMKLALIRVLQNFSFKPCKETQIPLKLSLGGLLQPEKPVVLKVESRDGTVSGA
# Chain of Cytochrome P450 2C19 (P33261 whole entry): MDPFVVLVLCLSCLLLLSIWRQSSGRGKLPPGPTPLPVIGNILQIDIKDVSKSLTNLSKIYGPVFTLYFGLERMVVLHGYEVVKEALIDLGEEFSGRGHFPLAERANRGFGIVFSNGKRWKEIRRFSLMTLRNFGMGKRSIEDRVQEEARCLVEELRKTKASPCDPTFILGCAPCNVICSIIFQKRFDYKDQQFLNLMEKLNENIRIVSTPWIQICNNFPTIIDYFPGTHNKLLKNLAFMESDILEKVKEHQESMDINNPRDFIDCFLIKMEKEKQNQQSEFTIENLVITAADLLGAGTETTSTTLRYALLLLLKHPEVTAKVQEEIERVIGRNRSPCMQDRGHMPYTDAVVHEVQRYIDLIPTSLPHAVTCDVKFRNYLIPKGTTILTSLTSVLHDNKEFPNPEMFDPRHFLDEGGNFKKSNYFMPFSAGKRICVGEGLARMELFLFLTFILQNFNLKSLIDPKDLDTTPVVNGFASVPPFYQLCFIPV
# Chain of Cytochrome P450 2C9 (P11712 whole entry): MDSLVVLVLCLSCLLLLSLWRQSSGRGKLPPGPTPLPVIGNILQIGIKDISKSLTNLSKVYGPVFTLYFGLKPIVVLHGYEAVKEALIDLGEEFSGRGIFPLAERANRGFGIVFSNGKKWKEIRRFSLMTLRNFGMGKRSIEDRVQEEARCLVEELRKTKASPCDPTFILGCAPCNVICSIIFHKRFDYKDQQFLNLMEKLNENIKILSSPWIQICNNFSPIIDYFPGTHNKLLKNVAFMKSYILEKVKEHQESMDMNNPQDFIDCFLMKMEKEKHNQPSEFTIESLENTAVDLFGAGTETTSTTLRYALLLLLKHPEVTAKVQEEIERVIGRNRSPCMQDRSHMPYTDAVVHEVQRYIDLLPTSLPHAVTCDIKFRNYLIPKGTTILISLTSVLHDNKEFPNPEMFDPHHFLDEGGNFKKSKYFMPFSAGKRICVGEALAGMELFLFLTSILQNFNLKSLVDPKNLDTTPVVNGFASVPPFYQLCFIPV
# T2 sequence (P11940 whole entry, the tested form may be a part): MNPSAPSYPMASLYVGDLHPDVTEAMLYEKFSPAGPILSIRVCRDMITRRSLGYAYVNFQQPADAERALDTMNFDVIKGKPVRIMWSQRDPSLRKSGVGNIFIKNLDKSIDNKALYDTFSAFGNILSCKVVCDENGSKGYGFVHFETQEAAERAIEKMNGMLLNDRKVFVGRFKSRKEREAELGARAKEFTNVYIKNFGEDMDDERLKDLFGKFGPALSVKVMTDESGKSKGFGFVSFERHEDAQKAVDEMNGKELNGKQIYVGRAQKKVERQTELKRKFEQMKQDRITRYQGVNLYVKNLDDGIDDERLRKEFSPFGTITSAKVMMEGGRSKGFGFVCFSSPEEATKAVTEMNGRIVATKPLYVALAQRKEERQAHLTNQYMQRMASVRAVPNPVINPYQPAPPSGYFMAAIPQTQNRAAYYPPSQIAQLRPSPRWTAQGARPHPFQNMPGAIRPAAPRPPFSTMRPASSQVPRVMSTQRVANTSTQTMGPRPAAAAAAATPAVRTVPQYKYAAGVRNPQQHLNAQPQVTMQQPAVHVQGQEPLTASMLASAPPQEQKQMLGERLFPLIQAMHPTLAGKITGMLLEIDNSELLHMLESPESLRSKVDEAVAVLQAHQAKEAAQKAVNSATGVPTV
smiles,measurement,setting,value
COc1cccc(Nc2ncc3nc(-c4ccccc4)c(=O)n(C4CC4)c3n2)c1,AC50,[1],10 µM (inconclusive)
O=C(CSCc1cccc(Cl)c1)N/N=C/c1ccc(OCC(=O)N2CCCCC2)cc1,AC50,[2],20 µM (inconclusive)
same,AC50,[1],22.4 µM (inconclusive)
O=C(Cn1cnc2c(oc3ccccc32)c1=O)c1ccccc1,EC50,[3],104 µM (active)
same,EC50,[4],29.6 µM (active)
same,EC50,[5],> 120 µM (not active)
COCCCNC(=O)C1CC(=O)N(Cc2ccc(OC)cc2)C1 (stereo not given),AC50,[6]; read-out: AC50,22.4 µM (inconclusive)
same,AC50,[7],20 µM (inconclusive)
O=C(c1ccc(Oc2ccc(C(F)(F)F)cn2)cc1)N1CCN(c2ccccc2)CC1,AC50,[7],14.1 µM (inconclusive)
same,AC50,[1],25.1 µM (inconclusive)
C/C(CC(=O)Nc1cc(C)cc(C)c1)=N\NC(=O)c1ccccn1,EC50,[3],> 120 µM (not active)
same,EC50,[4],> 120 µM (not active)
same,EC50,[5],42.2 µM (active)
CC1=NC2=C(C(=O)CCC2)C(c2cc3c(cc2Br)OCO3)/C1=C(\O)OCCOC(C)C (stereo not given),IC50,[8],> 66 µM (inactive)
same,IC50,[9],> 66 µM (inactive)
O=C(c1ccncc1)N1CCC2(CC1)CCN(c1ccccc1)CC2,AC50,[6]; read-out: AC50,39.8 µM (inconclusive)
CCOC(=O)N1CCN(C(=O)CNS(=O)(=O)c2cccs2)CC1,AC50,[7],14.1 µM (inconclusive)
same,AC50,[1],3.98 µM (inconclusive)
Cc1ccc2nsnc2c1S(=O)(=O)N(CCO)Cc1cc2cc3c(cc2nc1O)OCCO3,EC50,[3],14.2 µM (active)
same,EC50,[4],8.99 µM (active)
same,EC50,[5],10.4 µM (active)
CC(C)c1cccc2nc3c(c([Si](C)(C)C(C)(C)C)c12)Cn1c-3cccc1=O,AC50,[2],25.1 µM (inconclusive)
same,AC50,[1],39.8 µM (inconclusive)
CC1(C)CC(=O)C2=C(C1)N(c1ccc(F)cc1)C(N)=C(C#N)C2c1cccs1 (stereo not given),AC50,[6]; read-out: AC50,39.8 µM (inconclusive)
same,AC50,[1],10 µM (inconclusive)
Cc1cc(C)c(C#N)c(Oc2ccccc2)n1,AC50,[6]; read-out: AC50,11.2 µM (inconclusive)
CC(=O)c1cccc(S(=O)(=O)N2CCN(CCOc3ccccc3)CC2)c1,IC50,[8],> 66 µM (inactive)
same,IC50,[9],> 66 µM (inactive)
CCOc1ccccc1NC(=O)CSc1nnc(-c2cccnc2)o1,IC50,[8],> 66 µM (inactive)
same,IC50,[9],> 66 µM (inactive)
CCOc1ccc(-n2ccnc2SCC(=O)Nc2nnc(C)s2)cc1,AC50,[2],25.1 µM (inconclusive)
same,AC50,[1],11.2 µM (inconclusive)
CCOc1ccc(N2C(=O)CN=C2Nc2ccccc2F)cc1,AC50,[6]; read-out: AC50,25.1 µM (inconclusive)
same,AC50,[2],15.8 µM (inconclusive)
Clc1ccccc1CSc1ncn(-c2ccccc2)n1,EC50,[3],0.191 µM (active)
same,EC50,[4],0.42 µM (active)
same,EC50,[5],36.9 µM (active)
O=C(OCc1nc2ccccc2s1)C1CCN(C2=NS(=O)(=O)c3ccccc32)CC1,EC50,[3],24 µM (active)
same,EC50,[4],24.8 µM (active)
same,EC50,[5],21.9 µM (active)
C=C1S/C(=N/c2ccccc2Cl)N(C(=O)c2sc3ccccc3c2Cl)C1(C)C,EC50,[10],> 260 µM (inactive)
COc1ccc(NCc2nnc(SCC(=O)c3ccc(OC)cc3)n2C)cc1,EC50,[3],> 120 µM (not active)
same,EC50,[4],> 120 µM (not active)
same,EC50,[5],> 120 µM (not active)
CC(C)Sc1nc(NCc2ccco2)c2c3c(sc2n1)COC(C)(C)C3,EC50,[3],14.6 µM (active)
same,EC50,[4],17.2 µM (active)
same,EC50,[5],8.39 µM (active)
CC1(C)C(=O)C(c2ccccc2)=C2CN3C(=O)N(CCc4ccccc4)C(=O)C3(Cc3ccccc3)C=C21 (stereo not given),AC50,[2],6.31 µM (inconclusive)
same,AC50,[1],12.6 µM (inconclusive)
COc1ccc(C(=O)NC(C)c2cc(OC)c(OC)cc2Br)cc1 (stereo not given),AC50,[6]; read-out: AC50,39.8 µM (inconclusive)
COCCn1c(=O)c(-c2cccc(C#N)c2)nc2cnc(OCc3ccccc3)nc21,AC50,[6],inconclusive
same,AC50,[2],12.6 µM (inconclusive)
Cn1sc(NC(=O)c2ccccc2Cl)nc1=O,AC50,[1],17.8 µM (inconclusive)
CC1CCN(C(=O)Cn2nnc(-c3cccs3)n2)CC1,EC50,[3],4.67 µM (active)
same,EC50,[4],59.7 µM (active)
same,EC50,[5],23.4 µM (active)
CCCN(CCC)CCCNC(=O)C[S+]([O-])Cc1nc(-c2ccc(OC)c(OC)c2)oc1C (stereo not given),EC50,[10],> 260 µM (inactive)
same,AC50,[2],3.16 µM (inconclusive)
same,AC50,[7],7.94 µM (inconclusive)
same,AC50,[1],39.8 µM (inconclusive)
COc1ccccc1CNc1cc(-c2cccc(C#N)c2)ncn1,AC50,[6]; read-out: AC50,6.31 µM (inconclusive)
same,AC50,[7],25.1 µM (inconclusive)
CC1(C)O[C@@H]2C[C@H]3[C@H]4C[C@H](F)C5=CC(=O)C=C[C@@]5(C)[C@@H]4[C@H](O)C[C@]3(C)[C@]2(C(=O)CO)O1,AC50,[6],inconclusive
same,AC50,[7],12.6 µM (inconclusive)
COC(=O)c1cc(OC)c(OC)cc1NC(=S)NC(=O)c1ccco1,EC50,[10],28.2 µM (active)
O=P(Nc1c(Cl)cccc1Cl)(c1ccccc1)c1nc2c(s1)CCCC2 (stereo not given),AC50,[6]; read-out: AC50,20 µM (inconclusive)
same,AC50,[1],17.8 µM (inconclusive)
O=C1CC(N2CCC(c3nc4ccccc4[nH]3)CC2)C(=O)N1c1ccccc1F (stereo not given),EC50,[10],> 260 µM (inactive)
CCc1cccc(CC)c1NC(=O)CN(CC(=O)O)CC(=O)O [ETIFENIN],AC50,[6],inconclusive
O=C(CCCc1ccccc1)N1CCN(C2CCCCC2)CC1,EC50,[3],13.5 µM (active)
same,EC50,[4],13.7 µM (active)
same,EC50,[5],42.8 µM (active)
CCOc1ccc(C(=O)c2cccs2)cc1,EC50,[3],55 µM (active)
same,EC50,[4],13.5 µM (active)
same,EC50,[5],11.4 µM (active)
same,IC50,[11],> 47.1 µM (inactive)
same,EC50,[12],> 53 µM (inactive)
COC(=O)C1CSC(C(=O)OC)N1C(=O)Nc1c(C)cccc1C (stereo not given),AC50,[1],25.1 µM (inconclusive)
CS(=O)(=O)N1CCCC(C(=O)N2CCc3ccccc3C2)C1 (stereo not given),AC50,[6]; read-out: AC50,35.5 µM (inconclusive)
same,AC50,[2],25.1 µM (inconclusive)
same,AC50,[7],17.8 µM (inconclusive)
O=[N+]([O-])c1cccc(/C(=N/N=C/c2ccccc2Br)C23CN4CN(CN(C4)C2)C3)c1,AC50,[6]; read-out: AC50,14.1 µM (inconclusive)
same,AC50,[2],22.4 µM (inconclusive)
same,AC50,[7],31.6 µM (inconclusive)
same,AC50,[1],35.5 µM (inconclusive)
